Source: publication PMC11802874, “The hypolipidemic effect of MI-883, the combined CAR agonist/ PXR antagonist, in diet-induced hypercholesterolemia model” (Nature Communications, 2025)
Several values for one entry are separate records, joined by “and”; a condition that tells them apart may be missing. Equal entries are not always repeated. Entries after “also recorded” stand apart in the source; their conditions may differ.

What was measured:
[1] = test system: 3D primary human hepatocyte spheroids; assay: ATP production and spheroid size in 3D PHH spheroids; type: cell-based
Description: Briefly, PHHs were cultivated for 6 days to generate compact spheroids by spontaneous self-aggregation and then half of PHH medium was exchanged for FBS-free PHH medium. 3D PHHs were treated with MI-883 (5 μM) commenced from day 8 within a time range of 8–120 h (time points were 8, 12, 24, 48, 72, and 120 h). Conditioned FBS-free PHH medium was changed every 2–3 days of the treatment. […] Data are presented as the mean ± SD of fold change expression gained from 3D spheroids of three different donors. ATP assay has been performed as described.

THα = THα (Homo sapiens, UniProt P10827); assay: Luciferase reporter gene assay THα, HepG2
Description: (§1) Gal4-LBD constructs of tested nuclear receptors have been used together with pGL4.31[luc2P/GAL4UAS/Hygro] luciferase reporter construct and pRL-TK Renilla expression vector (both from Promega, Hercules, USA) in HepG2 cells transfected with Lipofectamine 2000 or 3000 reagents. For GRα and FXR receptors, full-length expression vectors have been used with pGRE-luc or pFXRE-luc luciferase constructs. For the aryl hydrocarbon receptor (AhR), p1A1-luc construct was used with only pRL-TK vector for transfection normalization. A dual reporter assay (Promega, Hercules, USA) was used to analyze both firefly and Renilla luciferase activities.
(§2) Gal4-LBD constructs of tested nuclear receptors have been used together with pGL5-luc luciferase reporter construct and pRL-TK Renilla expression vector in HepG2 cells transfected with Lipofectamine 2000 or 3000 reagents. For GRα and FXR receptors, full-length expression vectors have been used with pGRE-luc or pFXRE-luc luciferase constructs. For the aryl hydrocarbon receptor (AhR), p1A1-luc construct was used with only pRL-TK vector for transfection normalization. […] Bars represent means±S.D. (n=3).

[2] = Mouse plasma protein binding; type: in vitro ADME
Text: Plasma protein binding, and stability in human and mouse plasma have been tested as previously described.

PXR LBD = molecular target: T1, PXR LBD (Homo sapiens, UniProt O75469); assay: TR-FRET PXR LBD competitive binding assay (LanthaScreen); details: recombinant PXR LBD
T1 construct: purchased ThermoFisher Scientific
Description: The LanthaScreen TR-FRET PXR Competitive Binding Assay (ThermoFisher Scientific, USA) was performed to evaluate interaction with PXR LBD as we described. The assay measures the ability of an evaluated compound to replace the fluorescent PXR ligand from the receptor. The fluorescence was measured using a Synergy 2 Multi-Mode Microplate Reader (BioTek Winooski, VT, USA) (n = 3).

GRα = GRα (Homo sapiens, UniProt P04150); assay: Luciferase reporter gene assay GRα, HepG2; details: ligand: Dexamethasone 100 nM
Description: as §1, §2

CAR-LBD = molecular target: T2, CAR-LBD (Homo sapiens, UniProt Q14994); assay: MARCoNI CAR-LBD coregulator interaction array; type: biochemical; details: 100 μM
T2 construct: HIS-tagged CAR-LBD (ThermoFisher Sciences, Cat. No PV4836); purchased ThermoFisher PV4836
Description: The reaction was performed in a fully automated microarray processing and fluorescent imaging platform (PamStation12) at 20 °C for 80 cycles (two cycles per minute). After removal of the unbound CAR-LBD receptor by washing each array with 25 µl Tris-buffered Saline (TBS) buffer, fluorescent images of the PamChip microarrays were obtained using the PamStation12, and then were analyzed for quantification of CAR binding using BioNavigator software (PamGene International B.V.). For data and statistical analysis, BioNavigator was used.
Modulation index (MI) is the log10-transformed relative binding value, which is calculated by the compound’s binding value, relative to the vehicle control (DMSO) binding value.

[3] = molecular target: aryl hydrocarbon receptor (AhR) (Homo sapiens, UniProt P35869); assay: Luciferase reporter gene assay AhR (p1A1-luc), HepG2
Description: The luciferase reporter gene assays for FXR, LXRα, LXRβ, THα, GRα, PPARα, PPARδ/β, PPARγ, AhR, VD, ERα, ERβ and mouse Car are described in our recent paper[19]
as §1, §2

[4] = test system: PXB-mouse humanized liver mice (human hepatocytes); assay: PXB-mouse humanized liver mice study; type: in vivo; parameters: key to BW: body weight in g; Cho / CHO in LDL / CHO in HDL / CHO in VLDL / CHO in Chylom / TG / TG in LDL / TG in HDL / TG in VLDL / TG in Chylo / rel LW: unit not given here
Description: PXB-mouse® are mice with background genotype: cDNA-uPAwild/+/SCID [cDNA-uPAwild/+: B6;129SvEv-Plau, SCID: C.B-17/Icr-scid /scid Jcl]. Mice contain human hepatocytes with an estimated replacement index of 70% or more in the liver, which is calculated based on the blood concentration of human albumin (h-Alb). Human hepatocytes for the experiment were obtained from BD195 (Corning Incorporated, Tewksbury, MA, USA).
Male mice (n = 5 per group) were used for the experiments with the following characteristics: 19 to 23 weeks old on Day 0, body weights on Day 0 (19.3 to 22.3 g), and blood h-Alb Level (from 9.1 to 15.0 mg/mL).
MI-883 was applied in the following vehicle: corn oil (90%)/DMSO (5%)/PEG30 (5%) formulation of MI-883 2.5 mg/kg (1.5 mL) to treated animals. The same vehicle was used in the control group. MI-883 was applied via p.o. gavage using disposable plastic sondes (Fuchigami Kikai Co., Kyoto, Japan) at the dose of 2.5 mg/kg every day ([…] -day 0-Day 7).
The target volume of blood (200 μL) was collected from all subject animals under isoflurane anesthesia via the retro-orbital plexus/sinus using calibrated pipettes (Drummond Scientific Company, PA, USA) at each time point after 4 h of fasting. Isoflurane inhalation solution was also used at the terminal blood sampling. The livers were snap-frozen in two or more pieces in one tube in liquid nitrogen. These frozen liver samples were stored at −80 °C. Urine was directly collected from the urinary bladder using a syringe. Bile was directly collected from the gallbladder using a syringe.
Serum h-ALT1 concentration was determined based on an Enzyme-Linked ImmunoSorbent Assay (ELISA) developed by the Institute of Immunology Co., Ltd (Tokyo, Japan) (for details see Supplementary, Chapter 11).
The clinical chemistry analyzer (BioMajestyTM Series JCA-BM6050, JEOL Ltd., Tokyo, Japan) was used to measure the blood h-Alb. LipoSEARCH to determine the serum level of total cholesterol, triglyceride, chylomicron, VLDL, LDL, and HDL was performed by SkyLight Biotech (Akita, Japan). Serum h-ALT1 concentration was determined based on an Enzyme-Linked ImmunoSorbent Assay (ELISA) developed by the Institute of Immunology Co., Ltd. (Tokyo, Japan). SpectraMax® ABS Plus Microplate Readers (Molecular Devices LLC, San Jose, CA, USA) were used for this measurement.

[5] = 2.5 mg/kg per day, one week, n = 5
[6] = FigS15, humanized liver mice, individual animals
[7] = FigS15, plasma total, individual animals
[8] = FigS15, plasma, individual animals
[9] = FigS17, individual animals, relative to control
[10] = humanized Liver mice, human gene, relative to control, individual animals
[11] = humanized Liver mice, mouse gene, relative to control, individual animals

Chain of aryl hydrocarbon receptor (AhR) (P35869 11-848): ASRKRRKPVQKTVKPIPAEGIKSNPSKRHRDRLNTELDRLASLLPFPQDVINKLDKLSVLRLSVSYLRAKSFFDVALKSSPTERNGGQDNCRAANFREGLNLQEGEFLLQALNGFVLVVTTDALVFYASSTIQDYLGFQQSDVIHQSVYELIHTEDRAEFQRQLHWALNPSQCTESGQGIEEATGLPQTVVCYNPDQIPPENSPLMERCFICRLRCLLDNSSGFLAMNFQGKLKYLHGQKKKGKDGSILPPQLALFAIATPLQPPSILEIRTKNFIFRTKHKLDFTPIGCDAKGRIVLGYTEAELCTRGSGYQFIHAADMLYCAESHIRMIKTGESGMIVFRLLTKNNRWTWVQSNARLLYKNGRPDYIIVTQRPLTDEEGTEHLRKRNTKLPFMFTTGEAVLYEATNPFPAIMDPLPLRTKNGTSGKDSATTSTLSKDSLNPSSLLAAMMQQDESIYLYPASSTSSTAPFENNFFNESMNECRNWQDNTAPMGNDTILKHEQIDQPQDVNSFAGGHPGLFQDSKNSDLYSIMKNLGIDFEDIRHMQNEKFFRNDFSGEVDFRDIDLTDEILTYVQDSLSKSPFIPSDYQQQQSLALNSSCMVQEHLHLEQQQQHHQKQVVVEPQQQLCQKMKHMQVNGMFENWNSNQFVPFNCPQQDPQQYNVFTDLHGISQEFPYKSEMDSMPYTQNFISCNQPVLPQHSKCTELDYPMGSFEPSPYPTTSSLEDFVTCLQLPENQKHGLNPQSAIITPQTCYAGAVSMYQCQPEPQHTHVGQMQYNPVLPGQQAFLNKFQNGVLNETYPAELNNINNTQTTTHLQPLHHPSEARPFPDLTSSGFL
Chain of THα (P10827 163-410 isoform P10827-2 limits assumed): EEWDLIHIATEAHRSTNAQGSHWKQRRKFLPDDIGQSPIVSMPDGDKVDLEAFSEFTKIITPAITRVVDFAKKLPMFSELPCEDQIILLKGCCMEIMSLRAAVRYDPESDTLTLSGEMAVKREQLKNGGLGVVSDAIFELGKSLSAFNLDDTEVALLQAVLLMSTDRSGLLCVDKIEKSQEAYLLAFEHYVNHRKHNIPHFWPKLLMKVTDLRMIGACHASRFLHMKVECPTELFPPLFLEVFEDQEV
Chain of GRα (P04150 whole entry, the tested form may be a part): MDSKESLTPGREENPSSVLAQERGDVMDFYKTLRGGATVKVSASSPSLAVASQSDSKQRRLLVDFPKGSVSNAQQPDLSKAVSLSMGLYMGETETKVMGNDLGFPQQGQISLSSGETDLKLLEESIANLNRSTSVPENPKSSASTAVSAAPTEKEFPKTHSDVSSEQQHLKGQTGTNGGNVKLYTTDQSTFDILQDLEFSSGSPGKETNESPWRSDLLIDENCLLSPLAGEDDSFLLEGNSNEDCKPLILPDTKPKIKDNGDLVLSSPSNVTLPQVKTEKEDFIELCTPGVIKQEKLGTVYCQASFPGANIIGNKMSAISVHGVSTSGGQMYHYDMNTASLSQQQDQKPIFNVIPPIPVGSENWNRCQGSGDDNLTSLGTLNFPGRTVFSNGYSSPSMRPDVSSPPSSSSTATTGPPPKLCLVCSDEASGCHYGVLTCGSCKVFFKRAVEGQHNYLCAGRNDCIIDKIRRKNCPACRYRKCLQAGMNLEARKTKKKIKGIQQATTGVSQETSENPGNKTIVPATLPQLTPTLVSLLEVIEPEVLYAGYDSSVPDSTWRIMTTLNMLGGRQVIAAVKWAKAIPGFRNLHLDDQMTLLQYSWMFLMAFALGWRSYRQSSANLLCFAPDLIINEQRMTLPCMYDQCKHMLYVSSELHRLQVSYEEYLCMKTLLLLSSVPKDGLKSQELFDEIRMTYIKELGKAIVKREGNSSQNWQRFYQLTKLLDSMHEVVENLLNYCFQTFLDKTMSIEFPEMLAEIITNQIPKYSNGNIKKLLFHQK
T2 sequence (Q14994 109-348 isoform Q14994-2 limits assumed): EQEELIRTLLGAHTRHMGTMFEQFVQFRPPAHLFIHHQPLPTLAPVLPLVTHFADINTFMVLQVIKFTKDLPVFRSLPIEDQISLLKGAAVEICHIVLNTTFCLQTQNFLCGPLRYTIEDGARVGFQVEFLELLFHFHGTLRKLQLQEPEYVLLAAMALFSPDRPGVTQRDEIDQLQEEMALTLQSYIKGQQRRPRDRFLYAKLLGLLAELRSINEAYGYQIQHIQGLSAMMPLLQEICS
T1 sequence (O75469 146-433 limits assumed): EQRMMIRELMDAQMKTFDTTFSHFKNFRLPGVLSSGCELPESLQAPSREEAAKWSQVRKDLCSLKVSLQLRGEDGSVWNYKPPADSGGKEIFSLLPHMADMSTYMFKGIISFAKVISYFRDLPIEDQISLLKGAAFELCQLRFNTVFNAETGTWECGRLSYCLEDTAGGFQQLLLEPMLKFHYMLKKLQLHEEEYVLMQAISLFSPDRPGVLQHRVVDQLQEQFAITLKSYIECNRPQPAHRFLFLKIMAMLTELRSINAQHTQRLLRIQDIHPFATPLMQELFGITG

**Q.** With `NC(=O)c1cc(Cn2cc(-c3c(-c4ccc(Cl)cc4)nc4cc(F)ccn34)nn2)ccc1Cl` [MI-883, 2-chloro-5-((4-(2-(4-chlorophenyl)-7-fluoroimidazo[1,2-a]pyridin-3-yl)-1H-1,2,3-triazol-1-yl)methyl)benzamide] as the compound, how does the “spheroid size or ATP production in 3D PHHs” value ([1]; 5 μM, 72 h) read?
**A.** did not see any decrease

**Q.** What about the “Fig. 7c readout relative to control (control 100)” value ([1]; 5 uM, three replicates, control = 100) of the same compound?
**A.** 92.8 and 153.7 and 124.1

**Q.** And the “NRs assays: TH (GL4-hTRa) (relative to ctrl, replicates)” value (THα)?
**A.** 1.64 and 1.08 and 1.31

**Q.** What about the fraction unbound [2] of the same compound?
**A.** 0.01

**Q.** What about the IC50 (PXR LBD) of the same compound?
**A.** 100 ± 20 nM

**Q.** What about the “NRs assays: GRa (relative to ctrl, replicates)” value (GRα) of the same compound?
**A.** 0.97 (2×) and 1.03

**Q.** And the CAR-coregulator interaction profile (CAR-LBD)?
**A.** attracts several coactivators, including NCOA1, NCOA2, and NCOA3 proteins

**Q.** What about the “NRs assays: AhR (relative to ctrl, replicates)” value [3] of the same compound?
**A.** 0.69 and 0.85 and 0.64

**Q.** And the “liver enlargement (LW/BW ratio) in PXB humanized liver mice” value ([4]; 2.5 mg/kg every day, 7 days)?
**A.** did not observe significant liver enlargement

**Q.** What about the “proliferative biomarkers MDM2, PCNA, FOXM1 in PXB humanized liver mice” value ([4]; 2.5 mg/kg every day, 7 days) of the same compound?
**A.** no significant effects

**Q.** What about the “human albumin or human ALT (h-ALT1)” value ([4]; 2.5 mg/kg per day, one week) of the same compound?
**A.** did not observe any increase

**Q.** What about the “LDL and HDL cholesterol plasma concentrations in PXB mice” value [4, 5] of the same compound?
**A.** tendency for a decrease in LDL and an increase in HDL

**Q.** What about the “total cholesterol concentration in PXB mice” value [4, 5] of the same compound?
**A.** did not reach statistical significance

**Q.** What about the BW [4, 6] of the same compound?
**A.** 21.1 and 21.2 and 18.9 and 21.4

**Q.** What about the “rel LW” value [4, 6] of the same compound?
**A.** 12.7 and 13.9 and 18.9 and 13.7 and 15.2

**Q.** What about the h-ALT1 ([4]; FigS15, plasma biochemistry, individual animals) of the same compound?
**A.** 32.4 and 23.1 and 36 and 38.8 and 27.9

**Q.** What about the Cho [4, 7] of the same compound?
**A.** 59.5 and 63.3 and 87.8 and 100.6 and 69.3

**Q.** What about the TG [4, 7] of the same compound?
**A.** 79.5 and 114.8 and 91.5 and 67.5 and 118.2

**Q.** What about the “CHO in Chylom” value [4, 8] of the same compound?
**A.** 0.4 and 0.8 and 0.7 and 0.6

**Q.** And the “CHO in HDL” value [4, 8]?
**A.** 16 and 14.3 and 11.7 and 8 and 13.8

**Q.** And the “CHO in LDL” value [4, 8]?
**A.** 26.1 and 26.5 and 51.9 and 65.5 and 32.2

**Q.** What about the “CHO in VLDL” value [4, 8] of the same compound?
**A.** 17 and 21.7 and 23.6 and 26.5 and 22.7

**Q.** And the “TG in Chylo” value [4, 8]?
**A.** 2.6 and 5 and 3.9 and 2.5 and 3.5

**Q.** And the “TG in HDL” value [4, 8]?
**A.** 3.2 and 3.7 and 4.2 and 3.6 and 4.3

**Q.** And the “TG in LDL” value [4, 8]?
**A.** 30.8 and 34.5 and 34.1 and 36.7 and 34

**Q.** And the “TG in VLDL” value [4, 8]?
**A.** 43 and 71.6 and 49.3 and 24.6 and 76.4

**Q.** And the “ABCC4 mRNA (RT-qPCR in humanized liver mice)” value [4, 9]?
**A.** 1.98 and 1.27 and 2.64 and 0.98 and 0.66

**Q.** What about the “CYP2B6 mRNA (RT-qPCR in humanized liver mice)” value [4, 9] of the same compound?
**A.** 7.04 and 2.86 and 13.89 and 12.41 and 7.61

**Q.** And the “CYP3A4 mRNA (RT-qPCR in humanized liver mice)” value [4, 9]?
**A.** 0.35 and 0.63 and 1.62 and 10.03 and 6.65

**Q.** And the “HMGCR1 mRNA (RT-qPCR in humanized liver mice)” value [4, 9]?
**A.** 0.23 and 0.46 and 0.39 and 0.62 and 1.11

**Q.** What about the “HMGCS2 mRNA (RT-qPCR in humanized liver mice)” value [4, 9] of the same compound?
**A.** 3.19 and 1.63 and 2.91 and 2.97 and 2.16

**Q.** What about the “LDLR mRNA (RT-qPCR in humanized liver mice)” value [4, 9] of the same compound?
**A.** 1.63 and 0.66 and 1.69 and 2.23 and 2.34

**Q.** And the “SREBF1 mRNA (RT-qPCR in humanized liver mice)” value [4, 9]?
**A.** 0.27 and 0.47 and 0.58 and 0.76 and 1.32

**Q.** And the “UGT1A1 mRNA (RT-qPCR in humanized liver mice)” value [4, 9]?
**A.** 3.46 and 1.67 and 5.52 and 2.7 and 2.14

**Q.** And the “CYP2B6 mRNA in PXB humanized mice” value ([4]; Supplementary Fig. 17)?
**A.** upregulation

**Q.** What about the “CYP3A4 mRNA in PXB humanized mice” value ([4]; Supplementary Fig. 17) of the same compound?
**A.** have not significantly changed; also recorded: not statistically significant induction

**Q.** And the “Foxm1 RT-qPCR (Fig. 7d)” value [4, 10]?
**A.** 1.35 and 2.21 and 1.02 and 0.71 and 2.23

**Q.** And the “MKI67 RT-qPCR (Fig. 7d)” value [4, 10]?
**A.** 0.96 and 0.82 and 1.24 and 0.52 and 0.59

**Q.** What about the “Foxm1 RT-qPCR (Fig. 7d)” value [4, 11] of the same compound?
**A.** 0.92 and 1.07 and 0.75 and 0.53 and 0.33

**Q.** And the “Mki67 RT-qPCR (Fig. 7d)” value [4, 11]?
**A.** 1.24 and 0.62 and 1.46 and 0.36 and 0.17
